Peptide text beside a SMILES is read from it. * marks the point of attachment. Biotin = O=C1N[C@H]2[C@H](CS[C@H]2CCCCC(=O)*)N1; Ahx = NCCCCCC(=O)O

What all share (format): cell-based
For assay [1], the system named is hrR3. The assay is described as follows: LacZ+ virus (hrR3) entry assay. The note with it: Table 3; read-out: Entry Blocking Activity (IC50). The protocol: Confluent Vero cell cultures in 96-well microtiter plates were switched to Hepes-buffered serum-free DMEM, cooled on ice to 4° C. for 30 min, and infected with hrR3 for 1 hour at 4° C. in 40 μl of medium. Unattached virus was removed by rinsing with ice-cold medium. Treatments with antiviral peptide SEQ ID NO:1, referred to as EB, or a control peptide which comprised the RRKK tetra-peptide (SEQ ID NO:16) attached to a scrambled version of the membrane transiting peptide RRKKLAALPLVLAAPLAVLA (SEQ ID NO:17) (referred to as EBX), or mock-treatments with peptide-free medium were carried out in serum-free DMEM as indicated. Virus entry was initiated by transferring cultures to 37° C. To inactivate any remaining extracellular virus, cultures were rinsed with PBS and exposed to low pH citrate buffer (40 mM citric acid, 10 mM KCl, 135 mM NaCl, pH 3.0, according to Highlander et al., J. Virol. 61:3356 (1987), for 1 min at 23° C. The citrate was rinsed off with PBS and cultures were maintained in serum-supplemented DMEM until they were fixed with 0.5% gluteraldehyde in 5×PBS for 30 min at 23° C., stained for β-galactosidase activity for 1 hour or overnight at 23° C. with X-gal (Fisher Biotech; BP 1615-1) in 1×PBS containing […], 1.3 mM K4Fe(CN)6, and 1.3 mM K3Fe(CN)6, and scored for the presence of blue lacZ^+ cells.
In these studies, the hrR3 virus was pre-adsorbed to cells for 1 hour at 4° C. before ice cold 25 μM EB or EBX were added in serum-free DMEM. After an additional 1 hour at 4° C., cultures were shifted to 37° C. to initiate virus entry. At 15 min intervals following the temperature shift, any virus remaining outside the cells was inactivated by washing the cultures with low pH citrate buffer. Cultures were then rinsed and returned to peptide-free serum-supplemented DMEM until they were fixed and stained for f-galactosidase 8 hours after the temperature shift.
This conclusion is strengthened by the finding that the EB-sensitive phase of infection with pre-adsorbed virus clearly precedes expression of lacZ genes in hrR3 infected cells (FIG. 7A). Again, hrR3 was pre-adsorbed to cells for 1 hour at 4° C., unattached virus was rinsed off, and cells were kept for an additional hour at 4° C. Cultures were then transferred to 23° C. for 30 min before they were switched to 37° C. The more gradual change to 37° C. allowed cell layers to remain intact through subsequent frequent medium changes. Immediately following viral adsorption, cells were treated with 50 μM EB for 1 hour periods at consecutive 1 hour intervals. Between 1 and 4 hours post-infection, virus entry was inhibited by 70-80%. […] Parallel cultures were immediately fixed after mock-treatments and stained with X-gal. In these cultures, blue (lacZ^+) cells first appeared 7 hours post-infection and their number increased nearly linearly for the next 3 hours (FIG. 7A, (∘)). By 7 hours post-infection, EB ceased to be inhibitory.

The test system of assay [2] is hrR3. The assay is described as follows: Virucidal assay. How it is done:
[…] The treated virus was diluted 200-fold with serum-supplemented DMEM and assayed for infectivity approximately 1 hour later in microtiter wells seeded with Vero cells (3.5×10^4 cells/well) 1 d earlier. Forty or 100 microliter volumes of diluted virus were adsorbed for 1 or 2 h at 37° C. and lacZ^+ cells were scored 8 hours later. In some experiments, aliquots of diluted virus were first dialyzed (Spectra/Por; MWCO 12-14,000) overnight at 4° C. against a 60-fold excess volume of Hepes-buffered serum-supplemented DMEM or forced by syringe through 0.22 μm membranes (Millex-GV; Millipore) before the remaining infectious virus was assayed.

The subject of assay [3] is virus. In words: Anti-free virus activity (Table 3).
Assay [4] concerns HSV-1 KOS. The assay is described as follows: Yield reduction assay (virus production in infected Vero cells). How it is done: Three days post-infection, Vero cell cultures in microtiter plates were frozen (−80° C.) and thawed (37° C.) three times. Cells were suspended by repeated pipetting and microtiter plates were spun for 10 min at 700×g in a Beckman model TJ-6 tabletop centrifuge. The virus-containing supernates were serially diluted in regular medium and titered on Vero cells. Plaques were counted after staining the monolayers with crystal violet as taught by Grau et al., Invest. Ophthalmol. Vis. Sci. 30:2474 (1989).
Vero cell cultures as prepared in Example 1 were infected with HSV-1 and assayed for virus production as described in Example 1. The antiviral activity of an antiviral peptide according to the present invention EB (SEQ ID NO:1) was compared to the antiviral activity of the current HSV antiviral nucleoside standard, acyclovir. The two peptides were added to the Vero cells one hour prior to infection with HSV.

For assay [5], the system named is HSV-1 KOS. In words: Plaque reduction assay, HSV-1 KOS infection of Vero cell cultures. The note with it: for antiviral activity compared with EB: plaque reduction (FIG. 1D, FIG. 2). How it is done: The procedures for growing Vero cells and preparing high titer stocks of HSV-1 KOS as described in (Grau et al., Invest. Ophthal. and Vis. Sci. 30: 2474 (1989)) were utilized. Vero cells were maintained in carbonate-buffered DMEM supplemented with 5% calf serum and 5% fetal bovine serum (regular medium). For some studies, cells were switched to serum-free DMEM buffered with 25 mM Hepes (pH 7.4) and allowed to adapt to that medium for 30 min prior to experimental treatments. Vero cells were seeded into wells (0.28 cm^2) of microtiter plates either at 3.5×10^4 cells/well for use 1 day later (8×10^4 cells/well) or at 1×10^4 cells/well for use 3 days later (2×10^5 cells/well).
Confluent Vero cell cultures in microtiter plates were infected for 1 hour at 37° C. in 40 μl of medium. Except where indicated, peptide treatments in 40 μl of medium lasted from 1 hour before through 1 hour after infection. At the end of the adsorption period, the cultures were re-fed with 100 μl of regular medium. Plaque formation was scored 2 days later and the number of plaques scored per well was normalized to the number counted in the absence of peptide. Using an ocular micrometer, plaque size ([…]) was determined by measuring the largest plaque diameter (L) and the diameter at a 90° angle to that (S). The size of each of the first 40 scored plaques was measured except when a plaque included less than 10 rounded cells or touched the side of the well.
(In general: In a plaque reduction assay, fewer plaques than in the control indicate reduced infectivity or spread.)

Setting [6] is: 4° C., read-out: Virucidal Activity 4° C. (IC50).
Where [7] appears, read: 37° C., read-out: Virucidal Activity 37° C. (IC50).

On to `CC(C)C[C@H](NC(=O)[C@H](C)NC(=O)[C@H](CCCCN)NC(=O)[C@H](CC(C)C)NC(=O)[C@H](C)NC(=O)[C@H](CC(C)C)NC(=O)[C@H](CCCCN)NC(=O)[C@H](CC(C)C)NC(=O)[C@H](C)NC(=O)[C@H](CC(C)C)NC(=O)[C@H](CCCCN)NC(=O)CCCCCNC(=O)CCCC[C@@H]1SC[C@@H]2NC(=O)N[C@@H]21)C(=O)N[C@@H](CCCCN)C(=O)N[C@@H](C)C(=O)N[C@@H](C)C(=O)N[C@@H](CC(C)C)C(=O)N[C@@H](CCCCN)C(=O)N[C@@H](CC(C)C)C(=O)N[C@@H](C)C(N)=O` [bKLA, b-KLALKLALKALKAALKLA-amide], for which the IC50 (as a rule, the concentration needed to halve the response being measured) in assay [1] stood at 11 µM; in assay [2] (setting [6]), 45 µM; in assay [3], 4.5 µM.

Take `Nc1nc2c(ncn2COCCO)c(=O)[nH]1` [acyclovir, reference compound]: the “antiviral activity, EB compared with acyclovir” value in assay [4] (added one hour prior to infection, EB statement for concentrations exceeding 10 μM (FIG. 3)) is reported as “highest antiviral activity at low dosages”.

With `N=C(N)NCCC[C@H](NC(=O)[C@@H](N)CCCNC(=N)N)C(=O)N[C@@H](CCCCN)C(=O)N[C@@H](CCCCN)C(=O)O` [R-R-K-K tetramer, R-R-K-K, reference compound] (H-RRKK-OH; N-terminus and C-terminus assumed), in assay [5] (presence of serum, concentrations as high as 200 μM (FIG. 1A)), the antiviral activity entry is “no antiviral activity”.

As for RQIKIWFPNRRMKWKK [bHOMd], the IC50 in assay [1] is 7 µM; in assay [2] (setting [7]) it was 115 µM. Also, the “Virucidal Activity 4° C. (IC50)” value in assay [2] (4° C.) was “None”.

For the compound “NH2-RRKKAAVALLAV LLALLAPP-COOH (H-RRKKAAVALLAVLLALLAPP-OH) [EBPP]”, the “antiviral activity compared with EB” value in assay [5] and in assay [4] (yield reduction (FIG. 1E; data not shown)) was “twice as active” throughout.

In the case of `CC[C@H](C)[C@H](NC(=O)[C@H](CCCCN)NC(=O)[C@@H](NC(=O)[C@H](CCC(N)=O)NC(=O)[C@H](CCCNC(=N)N)NC(=O)CCCCCNC(=O)CCCC[C@@H]1SC[C@@H]2NC(=O)N[C@@H]21)[C@@H](C)CC)C(=O)N[C@@H](Cc1ccccc1)C(=O)N[C@@H](Cc1ccccc1)C(=O)N1CCC[C@H]1C(=O)N[C@@H](CC(N)=O)C(=O)N[C@@H](CCCNC(=N)N)C(=O)N[C@@H](CCCNC(=N)N)C(=O)N[C@@H](CCSC)C(=O)N[C@@H](CCCCN)C(=O)N[C@@H](Cc1ccccc1)C(=O)N[C@@H](CCCCN)C(=O)N[C@@H](CCCCN)C(N)=O` [bHOMFF, b-RQIKI F FPNRRMK F KK-amide] ({Biotin-Ahx}-RQIKIFFPNRRMKFKK-NH2), the results for the IC50 in assay [1] and in assay [3] were 40 µM and 34 µM, respectively. For the same compound, the “Virucidal Activity 4° C. (IC50)” value in assay [2] (4° C.) is listed as “None”. In assay [2] (37° C.), the “Virucidal Activity 37° C. (IC50)” value was “None”.

As to `CC[C@H](C)[C@H](NC(=O)[C@H](CCCCN)NC(=O)[C@@H](NC(=O)[C@H](CCC(N)=O)NC(=O)[C@H](CCCNC(=N)N)NC(=O)CCCCCNC(=O)CCCC[C@@H]1SC[C@@H]2NC(=O)N[C@@H]21)[C@@H](C)CC)C(=O)N[C@@H](Cc1c[nH]c2ccccc12)C(=O)N[C@@H](Cc1ccccc1)C(=O)N1CCC[C@H]1C(=O)N[C@@H](CC(N)=O)C(=O)N[C@@H](CCCNC(=N)N)C(=O)N[C@@H](CCCNC(=N)N)C(=O)N[C@@H](CCSC)C(=O)N[C@@H](CCCCN)C(=O)N[C@@H](Cc1c[nH]c2ccccc12)C(=O)N[C@@H](CCCCN)C(=O)N[C@@H](CCCCN)C(=O)N1CCC[C@H]1C(=O)NCC(=O)N[C@@H](Cc1ccc(O)cc1)C(=O)N[C@@H](C)C(=O)NCC(=O)N[C@@H](C)C(=O)N[C@H](C(=O)N[C@H](C(=O)N[C@@H](CC(N)=O)C(=O)N[C@@H](CC(=O)O)C(=O)N[C@@H](CC(C)C)C(=O)O)C(C)C)C(C)C` [bHOM-9, b-RQIKIWFPNRRMKWKK-9] ({Biotin-Ahx}-RQIKIWFPNRRMKWKKPGYAGAVVNDL-OH), the IC50 is 9 to 12 µM in assay [1], 115 µM in assay [2] (setting [7]) and 6 µM in assay [3]. The “Virucidal Activity 4° C. (IC50)” value in assay [2] (4° C.) is reported as “None”.

Take b-YGRKKRRQRRR-9x [bTAT-9x]: in assay [1], the IC50 worked out at 67 µM. For the same compound, in assay [2] (4° C.), the “Virucidal Activity 4° C. (IC50)” value is “None”. Moreover, the “Virucidal Activity 37° C. (IC50)” value in assay [2] (37° C.) is given as “None”.

On to `CC(C)C[C@H](NC(=O)[C@H](C)NC(=O)[C@H](CC(C)C)NC(=O)[C@H](CC(C)C)NC(=O)[C@@H](NC(=O)[C@H](C)NC(=O)[C@@H]1CCCN1C(=O)[C@H](CC(C)C)NC(=O)[C@H](CC(C)C)NC(=O)[C@H](C)NC(=O)[C@@H](NC(=O)[C@H](C)NC(=O)[C@H](C)NC(=O)[C@H](CCCCN)NC(=O)[C@H](CCCCN)NC(=O)[C@H](CCCNC(=N)N)NC(=O)[C@H](CCCNC(=N)N)NC(=O)CCCCCNC(=O)CCCC[C@@H]1SC[C@@H]2NC(=O)N[C@@H]21)C(C)C)C(C)C)C(=O)N[C@@H](CC(C)C)C(=O)N[C@@H](C)C(=O)N1CCC[C@H]1C(=O)O` [bEB] ({Biotin-Ahx}-RRKKAAVALLPAVLLALLAP-OH), for which the “antiviral activity compared with EB” value in assay [5] is reported as “essentially as effective as EB”. For the same compound, the IC50 in assay [1] was 15 µM; in assay [2] (setting [6]), 110 µM; in assay [2] (setting [7]), 35 µM; in assay [3], 21 µM.

In the case of `CC(C)C[C@H](NC(=O)[C@H](CC(=O)O)NC(=O)[C@H](CC(N)=O)NC(=O)[C@@H](NC(=O)[C@@H](NC(=O)[C@H](C)NC(=O)CNC(=O)[C@H](C)NC(=O)[C@H](Cc1ccc(O)cc1)NC(=O)CNC(=O)[C@@H]1CCCN1C(=O)[C@H](CCCNC(=N)N)NC(=O)[C@H](CCCNC(=N)N)NC(=O)[C@H](CCCNC(=N)N)NC(=O)[C@H](CCC(N)=O)NC(=O)[C@H](CCCNC(=N)N)NC(=O)[C@H](CCCNC(=N)N)NC(=O)[C@H](CCCCN)NC(=O)[C@H](CCCCN)NC(=O)[C@H](CCCNC(=N)N)NC(=O)CNC(=O)[C@H](Cc1ccc(O)cc1)NC(=O)CCCCCNC(=O)CCCC[C@@H]1SC[C@@H]2NC(=O)N[C@@H]21)C(C)C)C(C)C)C(=O)O` [bTAT-9, b-YGRKKRRQRRR-9] ({Biotin-Ahx}-YGRKKRRQRRRPGYAGAVVNDL-OH), the concentration for half-maximal inhibition (IC50) in assay [1] worked out at 26 µM; in assay [3], 8 µM. For the same compound, the “Virucidal Activity 4° C. (IC50)” value in assay [2] (4° C.) was “None”. In assay [2] (37° C.), the “Virucidal Activity 37° C. (IC50)” value is listed as “None”.
